Assay type in all cases: functional, cell-based
The test system of one experiment is MCF7. Put plainly: Cytotoxicity against human MCF7 cells by MTT assay. On the technique in general: Tetrazolium dyes change colour on reduction, which living cells bring about.
For another experiment, the system named is SMMC-7721. Put plainly: Cytotoxicity against human SMMC7721 cells by MTT assay.
The subject of the next experiment is HL-60. Description: Cytotoxicity against human HL60 cells by MTT assay.
For the next experiment, the system named is A549. Description: Cytotoxicity against human A549 cells by MTT assay.
The subject of another experiment is SW480. Description: Cytotoxicity against human SW480 cells by MTT assay.

pIC50: −log10 of the molar value. A value given as a limit tells only on which side of the number the result lay.

Usually pIC50 stands for −log10 of the IC50, conventionally taken in molar units. High values mean a small IC50, low ones a large IC50. With `OC[C@H](Cc1c[nH]c2ccccc12)NCc1c2ccccc2cc2ccccc12`, the negative-log IC50 (pIC50) in the experiment with MCF7, in the experiment with SMMC-7721, with HL-60, with A549 and with SW480 was below 4.40 throughout.
For `CC(C)(O)[C@H](Cc1c[nH]c2ccccc12)NCc1c2ccccc2cc2ccccc12`, the pIC50 is 4.90 with MCF7; 4.87 in the experiment with SMMC-7721; 5.02 in the experiment with HL-60; 4.96 with A549; 4.93 in the experiment on SW480.
On to `CCC(O)(CC)[C@H](Cc1c[nH]c2ccccc12)NCc1c2ccccc2cc2ccccc12`, for which the negative-log IC50 (pIC50) with MCF7 is 4.62; with SMMC-7721, 4.89; in the experiment with HL-60, 4.92; in the experiment on A549, 4.94; with SW480, below 4.40.
The like results for `CCCC(O)(CCC)[C@H](Cc1c[nH]c2ccccc12)NCc1c2ccccc2cc2ccccc12` were, in that order, 4.62, 4.76, 4.88, 4.96 and below 4.40.
The like results for `CCCCC(O)(CCCC)[C@H](Cc1c[nH]c2ccccc12)NCc1c2ccccc2cc2ccccc12` were, in that order, below 4.40, below 4.40, below 4.40, below 4.40 and below 4.40.
The matching figures for `Cn1cc(C[C@@H](CO)NCc2c3ccccc3cc3ccccc23)c2ccccc21`: 4.78, 4.82, 5.35, 4.78 and 4.87.
With `Cn1cc(C[C@H](NCc2c3ccccc3cc3ccccc23)C(C)(C)O)c2ccccc21`, the negative logarithm of the IC50 (pIC50) is 4.82 with MCF7; 4.81 in the experiment with SMMC-7721; 5.32 in the experiment with HL-60; 4.93 in the experiment with A549; 4.82 in the experiment on SW480.
`CCC(O)(CC)[C@H](Cc1cn(C)c2ccccc12)NCc1c2ccccc2cc2ccccc12`: the negative-log IC50 (pIC50) in the experiment on MCF7, with SMMC-7721, in the experiment with HL-60, in the experiment with A549 and with SW480 was below 4.40 throughout.
On to `CCCC(O)(CCC)[C@H](Cc1cn(C)c2ccccc12)NCc1c2ccccc2cc2ccccc12`, for which the pIC50 with MCF7, with SMMC-7721, in the experiment on HL-60, in the experiment on A549 and in the experiment on SW480 was below 4.40 throughout.
For the molecule `CCCCC(O)(CCCC)[C@H](Cc1cn(C)c2ccccc12)NCc1c2ccccc2cc2ccccc12`, the pIC50 with MCF7, in the experiment on SMMC-7721, in the experiment with HL-60, in the experiment with A549 and in the experiment with SW480 was below 4.40 each time.
Turning to `CCn1cc(C[C@@H](CO)NCc2c3ccccc3cc3ccccc23)c2ccccc21`, the pIC50 in the experiment on MCF7 was 4.83; in the experiment with SMMC-7721 it was 4.77; in the experiment on HL-60, 5.21; in the experiment on A549, 4.78; with SW480 it was 4.76.
On to `CCn1cc(C[C@H](NCc2c3ccccc3cc3ccccc23)C(C)(C)O)c2ccccc21`, for which the pIC50 in the experiment on MCF7 was 4.86; in the experiment with SMMC-7721, 4.87; with HL-60 it was 5.26; in the experiment with A549, 4.82; in the experiment with SW480, 4.76.
The like results for `CCn1cc(C[C@H](NCc2c3ccccc3cc3ccccc23)C(O)(CC)CC)c2ccccc21` were, in that order, below 4.40, below 4.40, below 4.40, below 4.40 and below 4.40.
The matching figures for `CCCC(O)(CCC)[C@H](Cc1cn(CC)c2ccccc12)NCc1c2ccccc2cc2ccccc12`: below 4.40, below 4.40, below 4.40, below 4.40 and below 4.40.
The matching figures for `CCCCC(O)(CCCC)[C@H](Cc1cn(CC)c2ccccc12)NCc1c2ccccc2cc2ccccc12`: below 4.40, below 4.40, below 4.40, below 4.40 and below 4.40.
As for `CC(=O)N(Cc1c2ccccc2cc2ccccc12)[C@H](CO)Cc1c[nH]c2ccccc12`, the pIC50 in the experiment with MCF7 was 4.79; with SMMC-7721, 4.85; in the experiment on HL-60 it was 5.44; in the experiment with A549, 4.82; in the experiment with SW480, 4.76.
The matching figures for `CC(=O)N(Cc1c2ccccc2cc2ccccc12)[C@@H](Cc1c[nH]c2ccccc12)C(C)(C)O`: 4.81, 4.92, 5.19, 4.84 and 4.76.
`O=C(c1ccccc1)N(Cc1c2ccccc2cc2ccccc12)[C@H](CO)Cc1c[nH]c2ccccc12`: the negative-log IC50 (pIC50) was 4.76 with MCF7; 4.68 in the experiment on SMMC-7721; 5.15 in the experiment on HL-60; 4.88 in the experiment on A549; 4.51 in the experiment on SW480.
The like results for `CC(C)(O)[C@H](Cc1c[nH]c2ccccc12)N(Cc1c2ccccc2cc2ccccc12)C(=O)c1ccccc1` were, in that order, below 4.40, below 4.40, below 4.40, below 4.40 and below 4.40.
